Results reported in patent US20190358201A1 (NantCell, Inc., priority 2018, published 2019).

How the values were obtained:
[1] = cited from earlier work
[2] = LVEF changes, Phase 2 study (INNO-206-P2-STS-01); assay type: in vivo, human; conditions: for Subjects with LVEF < 50% at any post-baseline cycle / Subjects with a 10% fall in LVEF: Phase 2, doxorubicin median 4 cycles of 75 mg/m^2 (N 40), aldoxorubicin median 6 cycles of 350 mg/m^2 (N 83)
[3] = LVEF changes, Phase 3 study (P3-STS-01); assay type: in vivo, human
[4] = Sensitivity and worst-case sensitivity analysis of PFS, aldoxorubicin vs doxorubicin (ITT population, independent assessment); assay type: in vivo, human; conditions: for PFS Events: 42 doxorubicin / 84 aldoxorubicin patients; for HR (95% CI): stratified Cox regression
Experimental: Sensitivity Analysis: To assess the impact of censoring the 8 patients with no baseline imaging at the date of randomization, a sensitivity analysis was conducted where a PFS event was imputed at the date of randomization. This analysis is presented in Table 1 showing the sensitivity analysis of PFS (ITT Population^a).
(§1) PFS is defined as the time from randomization to the date of first objective documentation of disease progression or death (any cause), whichever comes first. CI=Confidence interval; ECOG=Eastern Cooperative Oncology Group; HR=Hazard ratio; PFS=Progression-free survival; PS=Performance status. ^a The ITT Population comprised all randomized patients. ^bP-value is from stratified log-rank test with ECOG PS (0 to 1, 2) and chemotherapy (no prior chemotherapy or prior adjuvant/neoadjuvant chemotherapy) as stratification factors. Hazard ratio and 95% CI are from a Cox regression model stratified by ECOG PS (0 1, 2) and chemotherapy (no prior chemotherapy or prior adjuvant/neoadjuvant chemotherapy).
This analysis is presented in Table 2 (Worst-Case Sensitivity Analysis of PFS (ITT population^a)).
as §1, with “status. ^aThe” for “status. ^a The”, “randomized patients.^b P-value” for “randomized patients. ^bP-value”, “is based on a” for “is from”

[5] = Alopecia induction in patients; assay type: in vivo, human; conditions: aldoxorubicin administered instead of doxorubicin
[6] = tested on: soft tissue sarcoma; conditions: vs investigator's choice, entire study population; p=0.12, 95% CI 0.64-1.06; cited from earlier work
[7] = Tolerability of higher total cumulative doses of aldoxorubicin in patients; assay type: in vivo, human
Experimental: Based on the results above, the inventors investigated whether even higher total cumulative doses of aldoxorubicin could be tolerated. To that end, patients were administered total cumulative dosages of up to 3,000 mg/m^2, up to 4,000 mg/m^2, up to 5,000 mg/m^2, up to 6,000 mg/m^2, up to 7,000 mg/m^2, up to 8,000 mg/m^2, up to 9,000 mg/m^2, up to 10,000 mg/m^2, up to 11,000 mg/m^2, up to 12,000 mg/m^2, up to 13,000 mg/m^2, up to 14,000 mg/m^2, and even higher. […] As described herein, cardiotoxicity may be monitored by monitoring the level of metabolite doxorubicinol in the cardiac cells. Suitable cumulative dosages of aldoxorubicin include those that will not adversely affect LVEF. As such, LVEF of patients receiving aldoxorubicin will typically be in the range of 55% to 70%. Thus, in some embodiments, the patients may have LVEF of 55%-60%, or 60%-65%, or 65%-70%. Less preferably, aldoxorubicin may be administered to the patient until reaching a slightly lower than normal LVEF, say between 50%-54%, or 45%-50%, or 40%-45%.

[8] = Cardiac function by 2D echocardiogram in patients treated for at least 6 cycles of aldoxorubicin (Phase 1/2 with ifosfamide/mesna and Phase 3 alone); assay type: in vivo, human
Experimental: Fifty-two patients enrolled in a Phase 1/2 study of aldoxorubicin and ifosfamide/mesna and a Phase 3 study using aldoxorubicin alone were treated for at least 6 cycles of aldoxorubicin at either 250 mg/m^2 or 350 mg/m^2 per dose i. v. every 3 weeks. Cardiac function using 2D echocardiogram was evaluated at regular intervals every two cycles of aldoxorubicin until end of treatment and every six months after completion of the treatment.
After treatment, the cumulative aldoxorubicin dose for these patients ranged from […] to 7,500 mg/m^2. […] Ventricular ejection fractions ranged from 45-74% baseline, and 50-77% at end of treatment, median being 60% both at the beginning and end of treatment. Therefore, it should be appreciated that aldoxorubicin lacks cardiotoxicity in these patients treated with aldoxorubicin, alone or in combination with ifosfamide/mesna.

[9] = Formation of doxorubicinol metabolite and pharmacokinetics after administration; conditions: after administration to patients
[10] = Phase 3, doxorubicin N 47, aldoxorubicin N 213
[11] = sensitivity analysis of PFS, text to Table 1 / FIG. 2
[12] = sensitivity analysis, PFS event imputed at randomization for 8 patients without baseline imaging, ITT, independent assessment
[13] = sensitivity analysis, ITT, independent assessment
[14] = worst-case sensitivity analysis, PFS event imputed at date of censoring, ITT
[15] = worst-case sensitivity analysis, ITT, independent assessment

In the case of COc1cccc2c1C(=O)c1c(O)c3c(c(O)c1C2=O)C[C@@](O)(C(=O)CO)C[C@@H]3O[C@H]1C[C@H](N)[C@H](O)[C@H](C)O1 [Doxorubicin, reference compound], the “Allowable maximum cumulative lifetime dose” value ([1]; limit set in view of cardiotoxicity) is listed as 550 mg/m^2, the “Subjects with LVEF < 50% at any post-baseline cycle” value [2] is listed as 3 (8.6) n (%) and the “Subjects with a 10% fall in LVEF” value [2] is listed as 10 (29.4) n (%). The “Subjects with LVEF below 50% of any post-baseline visit” value [3, 10] was 9 (19.1) n (%), the “Median PFS” value [4, 11] was 83 days and the “PFS Events” value [4, 12] was 29. For the same compound, the “Median PFS” value [4, 13] was 82.0 days, the “PFS Events” value [4, 14] was 42 and the “Median PFS” value [4, 15] was 48.0 days.
For COc1cccc2c1C(=O)c1c(O)c3c(c(O)c1C2=O)C[C@@](O)(/C(CO)=N/NC(=O)CCCCCN1C(=O)C=CC1=O)C[C@@H]3O[C@H]1C[C@H](N)[C@H](O)[C@H](C)O1 [Aldoxorubicin, (6-maleimidocaproyl) hydrazone derivative of doxorubicin], the “Recommended doxorubicin equivalent dose” value ([1]; Clin Cancer Res 2007, 13(16)) is listed as 260 mg/m^2, the Alopecia induction [5] is listed as “minimal alopecia induction” and the “Decreases in LVEF (MUGA or echocardiogram)” value ([2]; Phase 2, aldoxorubicin treatment group) is listed as “no clinically relevant decreases in LVEF were observed”. The “Subjects with LVEF < 50% at any post-baseline cycle” value [2] was 0 n (%), the “Subjects with a 10% fall in LVEF” value [2] was 9 (12.2) n (%) and the Cardiotoxicity ([3]; Phase 3, 350 mg/m^2/cycle, up to 40 cycles, as compared to doxorubicin) was “minimal or no cardiotoxicity”. For the same compound, the “Subjects with LVEF below 50% of any post-baseline visit” value [3, 10] was 15 (7) n (%), the “Subjects with ≥ 20% LVEF decrease from baseline at any post-baseline visit” value [3, 10] was 9 (4.2) n (%) and the “PFS hazard ratio (HR)” value [6] was 0.81. For the same compound, the Cardiotoxicity ([7]; cumulative dose equivalent to doxorubicin significantly more than 10× 550 mg/m^2) was “no or substantially reduced cardiotoxicity”, the Cardiotoxicity ([7]; patients, doxorubicin equivalent doses even beyond 3000 mg/m^2) was “no cardiotoxicity was observed” and the “Tolerability, cardiotoxicity and/or LVEF” value ([7]; total cumulative doses of 14,000 mg/m^2) was “tolerated without any significant effect on cardiotoxicity and/or LVEF”. The “Median PFS” value [4, 11] was 170 days, the “HR as stated in text” value ([4]; sensitivity analysis of PFS, aldoxorubicin vs doxorubicin, p=0.032, 95% CI [0.38, 0.95]) was 0.60 and the “HR (95% CI)” value ([4]; sensitivity analysis of PFS, aldoxorubicin vs doxorubicin) was 0.60 (0.38, 0.95). For the same compound, the “PFS Events” value [4, 12] was 52, the “Median PFS” value [4, 13] was 132.0 days and the “HR (95% CI)” value ([4]; worst-case sensitivity analysis of PFS, aldoxorubicin vs doxorubicin) was 0.63 (0.43, 0.93). For the same compound, the “PFS Events” value [4, 14] was 84, the “Median PFS” value [4, 15] was 88.5 days and the “Ventricular ejection fraction, median” value ([8]; both at the beginning and end of treatment) was 60%. The “Clinical congestive heart failure” value ([8]; eleven patients with prior doxorubicin, cumulative aldoxorubicin dose 1,000 to 7,500 mg/m^2) was “no patient developed any sign or symptom of clinical congestive heart failure”, the “Ventricular ejection fraction at end of treatment (range)” value ([8]; end of treatment, baseline range 45-74%) was 50-77% and the Cardiac toxicity ([8]; up to doxorubicin equivalent doses of 7,500 mg/m^2, alone or with ifosfamide/mesna) was “did not find any evidence of cardiac toxicity”. For the same compound, the Formation of doxorubicinol [9] was “no detectable doxorubicinol” and the Formation of doxorubicinol ([9]; listed as doxorubicin after modification with N-c-maleimidocaproic acid hydrazide) was “did not lead to significant quantities of doxorubicinol”.
